Reference: US8263605B2, “Modulators of muscarinic receptors” (Vertex Pharmaceutical Incorporated, priority 2006, dated 2012)

Assays:
[1] = target: T1, M1 muscarinic receptor (Homo sapiens, UniProt P11229); test: Functional mobilization of intracellular calcium (FLIPR), M1-CHO cells; type: cell-based; conditions: for Emax: 100% efficacy is the maximum response obtained with the Carbachol control; for M1 Activity: CHO cells expressing M1, calcium mobilization
T1 construct: expressed in transfected cells; host or cells: CHO (M1-CHO)
T1 sequence (P11229 1-460): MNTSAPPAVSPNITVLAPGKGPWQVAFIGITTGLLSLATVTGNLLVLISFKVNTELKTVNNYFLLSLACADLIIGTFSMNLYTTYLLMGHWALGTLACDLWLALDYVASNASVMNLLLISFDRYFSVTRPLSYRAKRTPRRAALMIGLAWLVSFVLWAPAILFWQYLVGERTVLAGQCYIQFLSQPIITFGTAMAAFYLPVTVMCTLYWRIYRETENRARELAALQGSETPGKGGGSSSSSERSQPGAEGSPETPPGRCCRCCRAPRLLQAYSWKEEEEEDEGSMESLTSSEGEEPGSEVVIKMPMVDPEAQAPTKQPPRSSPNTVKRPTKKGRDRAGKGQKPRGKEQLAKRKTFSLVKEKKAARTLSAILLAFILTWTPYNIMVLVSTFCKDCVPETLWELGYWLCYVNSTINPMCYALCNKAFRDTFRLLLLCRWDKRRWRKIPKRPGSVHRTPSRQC
Experimental: (§1) Functional Mobilization of Intracellular Calcium to Determine Muscarinic Receptor Activity:
(§2) CHO cells expressing muscarinic receptors (M1 to M5) are grown as monolayers in tissue culture flasks at 37° C. in a humidified atmosphere containing 5% CO2 and passaged every 3-5 days. The growth media is Dulbecco's modified eagles medium (DMEM, Gibco Cat#12430-054), containing 25 mM Hepes and supplemented with Fetal Bovine Serum (Hyclone, cat# SH30071.03), 0.1 mM of MEM non-essential amino acids (GIBCO, Cat#11140-050), 1 mM MEM Sodium Pyruvate (GIBCO Cat#11360-070) and 100 units/ml of Penicillin G and 100 μg/ml of Streptomycin (GIBCO Cat#15140-122). The recombinant muscarinic receptor cell lines are grown under antibiotic pressure with media containing 25 μg/ml zeocin and 500 μg/ml G418 (M1-CHO), 4 μg/ml puromycin, 50 μg/ml zeocin and 2.5 μg/ml blasticidin (M2 and M4-CHO) or 50 μg/ml zeocin and 4 μg/ml puromycin (M3 and M5-CHO).
(§3) Cells are harvested at 80-90% confluence using Versene (GIBCO Cat#15040-066), collected by centrifugation and seeded 18-24 hours prior to running the calcium assay at a density of 5,000-10,000 cells/well in […], clear-bottomed 384-well plates (BD Biocoat, poly-D-lysine, Cat#356663). The day of the experiment, the cells are washed with a plate washer (Bioteck Instrunents, ELX 405) using bath 1 buffer (140-mM NaCl, 4.5-mM KCl, 2-mM CaCl2, 1-mM MgCl2, 10-mM Hepes-Na, 10-mM Glucose, pH 7.4, with NaOH) containing 1 mM Probenecid. Next, the calcium dye Fluo-3 (25 μl/well of Fluo-3 AM at 4 μM, Molecular Probes F-1241, in Bath 1 buffer containing 1 mM Probenecid) is added to the 25 μl of Bath 1 remaining in each well after the plate wash and the dye is loaded at 37° C. in the tissue culture incubator for 60-90 min. The fluorescent dye is removed using the plate washer with Bath 1 containing 1 mM Probenecid, leaving 25 μl/well of this solution after the wash. Alternatively, cells can be loaded with the calcium indicator from Molecular Devices (Calcium 3 Assay Reagents, Cat # R7181) adding 5 μl of a 5× solution dye in Bath 1 containing 1 mM Probenecid (10 ml per dye flask cat# R7182 to generate a solution 20×) to 20 μl of the same buffer. After loading for 60 min, the experiment can be run without having to remove the dye.
(§4) Compounds are prepared at a 2× fold concentration in a 96-well plate (round bottom, Costar Corning cat#3656), by reconstituting the pre-spotted compounds in bath 1 containing 1 mM probenecid. The final concentration DMSO is 0.5%, and the amount of DMSO is normalized across the assay plate. To determine an agonist action of the compounds on muscarinic receptors, the reconstituted compounds are added (25 μl compound/well) to the cell assay plate (containing 25 μl/well) using the multi-channel robotic system of the FLIPR 3 Instrument (Molecular Devices, Sunnyvale, Calif.). To determine a functional inhibitory action of the compounds on muscarinic receptors, the reconstituted compounds are added (25 μl compound/well) to the assay plate and pre-incubated for 15 min prior to adding 25 μl of Carbachol at 3× the EC80 for each muscarinic subtype. Alternatively, the compounds can be co-applied simultaneously with the agonist. In both assay modes, the fluorescence is recorded for 60 sec (excitation wavelength is […] and emission wavelength 540 nm) using the FLIPR 3 instrument.
(§5) The potency, efficacy and selectivity of the muscarinic compounds were evaluated by screening the compound activity across the whole family (M1 to M5 cells). Compounds were also screened for activity on other proteins such as other GPCRs and ion channels to determine selectivity on M4 receptors.
(§6) Examples of activities and efficacies of the muscarinic compounds of formulae (I, Ia, Ib, Ic, Id, and Ie) on modulating M1 and M4 receptors are shown below in Table 4. […]

[2] = target: T2, M4 muscarinic receptor (Homo sapiens, UniProt P08173); test: Functional mobilization of intracellular calcium (FLIPR), M4-CHO cells; type: cell-based; conditions: for Emax: 100% efficacy is the maximum response obtained with the Carbachol control; for M4 Activity: CHO cells expressing M4, calcium mobilization
T2 construct: expressed in transfected cells; host or cells: CHO (M4-CHO)
T2 sequence (P08173 1-479): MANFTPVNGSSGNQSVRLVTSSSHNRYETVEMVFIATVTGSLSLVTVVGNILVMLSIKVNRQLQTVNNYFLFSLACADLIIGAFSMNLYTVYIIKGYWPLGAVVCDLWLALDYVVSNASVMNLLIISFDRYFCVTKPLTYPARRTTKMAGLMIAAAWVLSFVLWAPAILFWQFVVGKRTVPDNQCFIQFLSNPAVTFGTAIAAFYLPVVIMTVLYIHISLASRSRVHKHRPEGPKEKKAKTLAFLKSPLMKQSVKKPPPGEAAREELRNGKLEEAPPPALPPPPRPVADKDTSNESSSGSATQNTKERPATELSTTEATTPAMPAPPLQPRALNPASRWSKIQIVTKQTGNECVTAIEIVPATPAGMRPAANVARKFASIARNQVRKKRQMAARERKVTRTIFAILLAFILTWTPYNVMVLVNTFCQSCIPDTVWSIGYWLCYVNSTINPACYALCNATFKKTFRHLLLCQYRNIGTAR
Experimental: as §1, §2, §3, §4, §5, §6

C#CCOC(=O)N1CCC(N2CCC3(CCN(C(=O)N(C)C)c4ccccc43)CC2)CC1 [compound 4]
Emax [1]: 25 to 100%
M1 Activity [1]: +++ (activity was measured to be less than 2.0 μM)
Emax [2]: 25 to 100%
M4 Activity [2]: +++ (activity was measured to be less than 2.0 μM)

Cc1nsc(N2CCC(N3CCC4(CCN(C(=O)N(C)C)c5ccccc54)CC3)CC2)n1 [compound 6]
Emax [1]: 25 to 100%
M1 Activity [1]: +++ (activity was measured to be less than 2.0 μM)
Emax [2]: 25 to 100%
M4 Activity [2]: +++ (activity was measured to be less than 2.0 μM)

CCc1nsc(N2CCC(N3CCC4(CCN(C(=O)N(C)C)c5ccccc54)CC3)CC2)n1 [compound 7]
Emax [1]: 25 to 100%
M1 Activity [1]: +++ (activity was measured to be less than 2.0 μM)
Emax [2]: 25 to 100%
M4 Activity [2]: +++ (activity was measured to be less than 2.0 μM)

CN(C)C(=O)N1CCC2(CCN(C3CCN(c4cnccn4)CC3)CC2)c2ccccc21 [compound 8]
Emax [1]: 25 to 100%
M1 Activity [1]: +++ (activity was measured to be less than 2.0 μM)
Emax [2]: 25 to 100%
M4 Activity [2]: +++ (activity was measured to be less than 2.0 μM)

COC(=O)N1CCC(N2CCC3(CCN(C(C)=O)c4ccccc43)CC2)CC1 [compound 10]
Emax [1]: 25 to 100%
M1 Activity [1]: +++ (activity was measured to be less than 2.0 μM)
Emax [2]: 25 to 100%
M4 Activity [2]: +++ (activity was measured to be less than 2.0 μM)

C#CCOC(=O)N1CCC(N2CCC3(CCN(C(C)=O)c4ccccc43)CC2)CC1 [compound 12]
Emax [1]: > 100%
M1 Activity [1]: +++ (activity was measured to be less than 2.0 μM)
Emax [2]: 25 to 100%
M4 Activity [2]: +++ (activity was measured to be less than 2.0 μM)

CC#CCOC(=O)N1CCC(N2CCC3(CCN(C(C)=O)c4ccccc43)CC2)CC1 [compound 13]
Emax [1]: 25 to 100%
M1 Activity [1]: +++ (activity was measured to be less than 2.0 μM)
Emax [2]: 25 to 100%
M4 Activity [2]: +++ (activity was measured to be less than 2.0 μM)

CCC#CCOC(=O)N1CCC(N2CCC3(CCN(C(C)=O)c4ccccc43)CC2)CC1 [compound 14]
Emax [1]: 25 to 100%
M1 Activity [1]: +++ (activity was measured to be less than 2.0 μM)
Emax [2]: 25 to 100%
M4 Activity [2]: +++ (activity was measured to be less than 2.0 μM)

CC(=O)N1CCC2(CCN(C3CCN(c4nc(C)ns4)CC3)CC2)c2ccccc21 [compound 15]
Emax [1]: 25 to 100%
M1 Activity [1]: +++ (activity was measured to be less than 2.0 μM)
Emax [2]: 25 to 100%
M4 Activity [2]: +++ (activity was measured to be less than 2.0 μM)

CCc1nsc(N2CCC(N3CCC4(CCN(C(C)=O)c5ccccc54)CC3)CC2)n1 [compound 16]
Emax [1]: 25 to 100%
M1 Activity [1]: +++ (activity was measured to be less than 2.0 μM)
Emax [2]: 25 to 100%
M4 Activity [2]: +++ (activity was measured to be less than 2.0 μM)

CC(=O)N1CCC2(CCN(C3CCN(c4cnccn4)CC3)CC2)c2ccccc21 [compound 17]
Emax [1]: 25 to 100%
M1 Activity [1]: +++ (activity was measured to be less than 2.0 μM)
Emax [2]: 25 to 100%
M4 Activity [2]: +++ (activity was measured to be less than 2.0 μM)

CC(=O)N1CCC2(CCN(C3CCN(c4cnc5ccccc5n4)CC3)CC2)c2ccccc21 [compound 18]
Emax [1]: 25 to 100%
M1 Activity [1]: ++ (activity was measured to be from 2.0 μM to 10.0 μM)
Emax [2]: 25 to 100%
M4 Activity [2]: +++ (activity was measured to be less than 2.0 μM)

CN(C)C(=O)N1CCC2(CCN(C3CCN(C(=O)OCCC#N)CC3)CC2)c2ccccc21 [compound 19]
Emax [1]: < 25%
M1 Activity [1]: ++ (activity was measured to be from 2.0 μM to 10.0 μM)
Emax [2]: 25 to 100%
M4 Activity [2]: +++ (activity was measured to be less than 2.0 μM)

CN(C)C(=O)N1CCC2(CCN(C3CCN(c4nncs4)CC3)CC2)c2ccccc21 [compound 21]
Emax [1]: 25 to 100%
M1 Activity [1]: ++ (activity was measured to be from 2.0 μM to 10.0 μM)
Emax [2]: < 25%
M4 Activity [2]: ++ (activity was measured to be from 2.0 μM to 10.0 μM)

Cc1csc(N2CCC(N3CCC4(CCN(C(=O)N(C)C)c5ccccc54)CC3)CC2)n1 [compound 22]
Emax [1]: 25 to 100%
M1 Activity [1]: ++ (activity was measured to be from 2.0 μM to 10.0 μM)
Emax [2]: 25 to 100%
M4 Activity [2]: ++ (activity was measured to be from 2.0 μM to 10.0 μM)

CC(=O)N1CCC2(CCN(C3CCN(c4nncs4)CC3)CC2)c2ccccc21 [compound 23]
Emax [1]: 25 to 100%
M1 Activity [1]: ++ (activity was measured to be from 2.0 μM to 10.0 μM)
Emax [2]: 25 to 100%
M4 Activity [2]: ++ (activity was measured to be from 2.0 μM to 10.0 μM)

CC(=O)N1CCC2(CCN(C3CCN(c4nccs4)CC3)CC2)c2ccccc21 [compound 24]
Emax [1]: 25 to 100%
M1 Activity [1]: ++ (activity was measured to be from 2.0 μM to 10.0 μM)
Emax [2]: < 25%
M4 Activity [2]: ++ (activity was measured to be from 2.0 μM to 10.0 μM)

CC(=O)N1CCC2(CCN(C3CCN(c4nc(C)cs4)CC3)CC2)c2ccccc21 [compound 25]
Emax [1]: 25 to 100%
M1 Activity [1]: ++ (activity was measured to be from 2.0 μM to 10.0 μM)
Emax [2]: 25 to 100%
M4 Activity [2]: ++ (activity was measured to be from 2.0 μM to 10.0 μM)

COC(=O)N1C2CCC1CC(N1CCC3(CCN(C(=O)N(C)C)c4ccccc43)CC1)C2 (centres unmarked) [compound 26]
Emax [1]: 25 to 100%
M1 Activity [1]: ++ (activity was measured to be from 2.0 μM to 10.0 μM)
Emax [2]: 25 to 100%
M4 Activity [2]: +++ (activity was measured to be less than 2.0 μM)

CCOC(=O)N1C2CCC1CC(N1CCC3(CCN(C(=O)N(C)C)c4ccccc43)CC1)C2 (centres unmarked) [compound 27]
Emax [1]: 25 to 100%
M1 Activity [1]: +++ (activity was measured to be less than 2.0 μM)
Emax [2]: 25 to 100%
M4 Activity [2]: +++ (activity was measured to be less than 2.0 μM)
